# Experimental data: patent publication US8314150B2, “Kinase protein binding inhibitors” (priority 2008, dated 2012)
# Experiments:
# FAK = target: T1, FAK (Homo sapiens, UniProt Q05397); assay: In vitro kinase assay with purified recombinant FAK; format: biochemical; details: doses 1-100 μM tested
# T1 construct: made in house; host or cells: Baculovirus system
# Experimental: (§1) Cell Viability Assay—The Cells were treated with peptides for 24 hours at different peptide concentrations. The 3-(4,5-dimethylthiazol-2-yl)-5-(3-carboxymethoxyphenyl)-2-(4-sulfophenyl)-2H-tetrazolium compound from Promega Viability kit (Madison, Ill.) was added, and the cells were incubated at 37° C. for 1-2 hours. The optical density on 96-plate was analyzed with a microplate reader at 490 nm to determine cell viability. In addition, cells were stained with trypan blue after 24 hours of treatment with Y15 and the percent of cells that stained positive were determined with a hemacytometer. […] Then 2% SDS was added to the dried plated and OD at 590 nm was measured for detecting cell adhesion. […] Protein concentrations were determined using a Bio-Rad Kit. The boiled samples were loaded on Ready SDS-10% PAGE gels (Bio Rad, Inc) and used for Western blot analysis with the protein-specific antibody. […] Detachment Assay—Cells were plated with and without inhibitors for 24 hours, and detached and attached cells were counted in a hemocytometer. We calculated the percent of detachment by dividing the number of detached cells by the total number of cells. The percent of detached cells was calculated in three independent experiments. […] For each experiment 300 cells per treatment were counted. […]
# BT474 cells = assay: Detachment assay, BT474; format: cell-based; details: 24 hours
# Experimental: Cell Viability Assay—The Cells were treated with peptides for 24 hours at different peptide concentrations. The 3-(4,5-dimethylthiazol-2-yl)-5-(3-carboxymethoxyphenyl)-2-(4-sulfophenyl)-2H-tetrazolium compound from Promega Viability kit (Madison, Ill.) was added, and the cells were incubated at 37° C. for 1-2 hours. The optical density on 96-plate was analyzed with a microplate reader at 490 nm to determine cell viability. In addition, cells were stained with trypan blue after 24 hours of treatment with Y15 and the percent of cells that stained positive were determined with a hemacytometer. Cell adhesion assay—The poly-L-Lysine or Collagen (5 μg/ml) coated 96-well plates were blocked with the blocking buffer (medium with 0.5% BSA) for 1 hour at 37 C. The cells were pre-treated with drugs for 3 hours and plated for adhesion at 4×10^5 cells. Cells were incubated at 37 C for 1 hour, fixed in 3.7% formaldehyde, washed in 0.1% BSA in PBS and stained with crystal violet (5 mg/ml in 2% ethanol) for 10 minutes. Then 2% SDS was added to the dried plated and OD at 590 nm was measured for detecting cell adhesion. Western Blotting—Cells or homogenized tumor samples were washed twice with cold 1×PBS and lysed on ice for 30 minutes in a buffer containing: 50 mM Tris-HCl (pH 7.5), 150 mM NaCl, 1% Triton-X, 0.5% NaDOC, 0.1% SDS, 5 mM EDTA, 50 mM NaF, 1 mM NaVO3, 10% glycerol and protease inhibitors: 10 μg/ml leupeptin, 10 μg/ml PMSF and 1 μg/ml aprotinin. The lysates were cleared by centrifugation at 10,000 rpm for 30 minutes at 4° C. Protein concentrations were determined using a Bio-Rad Kit. The boiled samples were loaded on Ready SDS-10% PAGE gels (Bio Rad, Inc) and used for Western blot analysis with the protein-specific antibody. Immunoblots were developed with chemiluminescence Renaissance reagent (NEN Life Science Products, Inc). Immunoprecipitation. Immunoprecipitation was performed according to the standard protocol. In brief, the pre-cleared lysates with equal amount of protein were incubated with 1 μg of primary antibody and 30 μl A/G agarose beads overnight at 4° C. The precipitates were washed with lysis buffer three times and re-suspended in 2× Laemmli buffer. The boiled samples were used for Western blotting, as described above. Detachment Assay—Cells were plated with and without inhibitors for 24 hours, and detached and attached cells were counted in a hemocytometer. We calculated the percent of detachment by dividing the number of detached cells by the total number of cells. The percent of detached cells was calculated in three independent experiments. Apoptosis Assay. […] The percent of apoptotic cells was calculated as a ratio of apoptotic detached cells divided by the total number of cells in three independent experiments in several fields with the fluorescent microscope. For each experiment 300 cells per treatment were counted. In vitro Kinase Assay—10 μCi of [γ-^32P]-ATP in a kinase buffer (20 mM HEPES, pH 7.4, 5 mM MgCl2, 5 mM MnCl2, 0.1 mM Na3VO4 with 0.1 μg of purified FAK protein were incubated in a kinase buffer with 10 μCi of [γ-^32P]-ATP. The kinase reaction was performed for 5 minutes at room temperature and stopped by addition of 2× Laemmli buffer. Proteins were separated on a Ready SDS-10% PAGE gel, and the phosphorylated enolase was visualized by autoradiography. KinaseProfiler screening—Kinase specificity screening was performed with KinaseProfiler™ Service (Millipore) available on http://www.millipore.com/drugdiscovery/dd3/KinaseProfiler. […]
# [1] = tested on: normal breast epithelial cells (MCF10A); assay: Trypan blue staining, normal breast epithelial cells; format: cell-based, human; details: doses up to 10 μM
# Experimental: as §1
# normal human fibroblasts = assay: Detachment and morphology, normal human fibroblasts; format: cell-based; details: doses up to 10 μM
# Experimental: as §1
# [2] = tested on: Panc-1 and Miapaca-2 cells; assay: Trypan blue staining, pancreatic cancer cells; format: cell-based, human; details: increasing doses, 24 hours
# Experimental: as §1
# [3] = tested on: BT474, T47D, MCF-7 breast cancer, HT29 colon cancer, C8161 melanoma, A549 lung cancer cell lines; assay: MTT cell viability screen of 36 compounds in 6 cancer cell lines; format: cell-based; details: 100 μM, 24 hours, among 36 compounds
# Experimental: as §1
# [4] = tested on: Y397 phosphorylation of FAK; assay: Western blotting with Y397 FAK antibody, Panc-1 cells; format: cell-based, human; details: 24 hours
# Experimental: Cell Viability Assay—The Cells were treated with peptides for 24 hours at different peptide concentrations. The 3-(4,5-dimethylthiazol-2-yl)-5-(3-carboxymethoxyphenyl)-2-(4-sulfophenyl)-2H-tetrazolium compound from Promega Viability kit (Madison, Ill.) was added, and the cells were incubated at 37° C. for 1-2 hours. The optical density on 96-plate was analyzed with a microplate reader at 490 nm to determine cell viability. In addition, cells were stained with trypan blue after 24 hours of treatment with Y15 and the percent of cells that stained positive were determined with a hemacytometer. Cell adhesion assay—The poly-L-Lysine or Collagen (5 μg/ml) coated 96-well plates were blocked with the blocking buffer (medium with 0.5% BSA) for 1 hour at 37 C. The cells were pre-treated with drugs for 3 hours and plated for adhesion at 4×10^5 cells. Cells were incubated at 37 C for 1 hour, fixed in 3.7% formaldehyde, washed in 0.1% BSA in PBS and stained with crystal violet (5 mg/ml in 2% ethanol) for 10 minutes. Then 2% SDS was added to the dried plated and OD at 590 nm was measured for detecting cell adhesion. […] Protein concentrations were determined using a Bio-Rad Kit. The boiled samples were loaded on Ready SDS-10% PAGE gels (Bio Rad, Inc) and used for Western blot analysis with the protein-specific antibody. […] Detachment Assay—Cells were plated with and without inhibitors for 24 hours, and detached and attached cells were counted in a hemocytometer. We calculated the percent of detachment by dividing the number of detached cells by the total number of cells. The percent of detached cells was calculated in three independent experiments. […] The percent of apoptotic cells was calculated as a ratio of apoptotic detached cells divided by the total number of cells in three independent experiments in several fields with the fluorescent microscope. For each experiment 300 cells per treatment were counted. […]
# c-Src = target: T2, c-Src (Homo sapiens, UniProt P12931); assay: KinaseProfiler screening; format: biochemical; details: 1 μM, 10 μM ATP
# T2 construct: purchased Millipore KinaseProfiler Service (Upstate Biotechnology, Inc)
# Experimental: Cell Viability Assay—The Cells were treated with peptides for 24 hours at different peptide concentrations. The 3-(4,5-dimethylthiazol-2-yl)-5-(3-carboxymethoxyphenyl)-2-(4-sulfophenyl)-2H-tetrazolium compound from Promega Viability kit (Madison, Ill.) was added, and the cells were incubated at 37° C. for 1-2 hours. The optical density on 96-plate was analyzed with a microplate reader at 490 nm to determine cell viability. In addition, cells were stained with trypan blue after 24 hours of treatment with Y15 and the percent of cells that stained positive were determined with a hemacytometer. Cell adhesion assay—The poly-L-Lysine or Collagen (5 μg/ml) coated 96-well plates were blocked with the blocking buffer (medium with 0.5% BSA) for 1 hour at 37 C. The cells were pre-treated with drugs for 3 hours and plated for adhesion at 4×10^5 cells. Cells were incubated at 37 C for 1 hour, fixed in 3.7% formaldehyde, washed in 0.1% BSA in PBS and stained with crystal violet (5 mg/ml in 2% ethanol) for 10 minutes. Then 2% SDS was added to the dried plated and OD at 590 nm was measured for detecting cell adhesion. Western Blotting—Cells or homogenized tumor samples were washed twice with cold 1×PBS and lysed on ice for 30 minutes in a buffer containing: 50 mM Tris-HCl (pH 7.5), 150 mM NaCl, 1% Triton-X, 0.5% NaDOC, 0.1% SDS, 5 mM EDTA, 50 mM NaF, 1 mM NaVO3, 10% glycerol and protease inhibitors: 10 μg/ml leupeptin, 10 μg/ml PMSF and 1 μg/ml aprotinin. The lysates were cleared by centrifugation at 10,000 rpm for 30 minutes at 4° C. Protein concentrations were determined using a Bio-Rad Kit. The boiled samples were loaded on Ready SDS-10% PAGE gels (Bio Rad, Inc) and used for Western blot analysis with the protein-specific antibody. Immunoblots were developed with chemiluminescence Renaissance reagent (NEN Life Science Products, Inc). Immunoprecipitation. Immunoprecipitation was performed according to the standard protocol. In brief, the pre-cleared lysates with equal amount of protein were incubated with 1 μg of primary antibody and 30 μl A/G agarose beads overnight at 4° C. The precipitates were washed with lysis buffer three times and re-suspended in 2× Laemmli buffer. The boiled samples were used for Western blotting, as described above. Detachment Assay—Cells were plated with and without inhibitors for 24 hours, and detached and attached cells were counted in a hemocytometer. We calculated the percent of detachment by dividing the number of detached cells by the total number of cells. The percent of detached cells was calculated in three independent experiments. Apoptosis Assay. Detached cells were collected and fixed in 3.7% formaldehyde in 1×PBS solution for the apoptosis assay. Detection of apoptosis was done with Hoechst 33342 staining. The percent of apoptotic cells was calculated as a ratio of apoptotic detached cells divided by the total number of cells in three independent experiments in several fields with the fluorescent microscope. For each experiment 300 cells per treatment were counted. In vitro Kinase Assay—10 μCi of [γ-^32P]-ATP in a kinase buffer (20 mM HEPES, pH 7.4, 5 mM MgCl2, 5 mM MnCl2, 0.1 mM Na3VO4 with 0.1 μg of purified FAK protein were incubated in a kinase buffer with 10 μCi of [γ-^32P]-ATP. The kinase reaction was performed for 5 minutes at room temperature and stopped by addition of 2× Laemmli buffer. Proteins were separated on a Ready SDS-10% PAGE gel, and the phosphorylated enolase was visualized by autoradiography. KinaseProfiler screening—Kinase specificity screening was performed with KinaseProfiler™ Service (Millipore) available on http://www.millipore.com/drugdiscovery/dd3/KinaseProfiler. The screening was performed with 1 μM Y15, 10 μM ATP and kinase substrates on 9 recombinant kinases according to Millipore protocol. Tumor Growth in Nude Mice—Female nude mice, 6 weeks old, were purchased from Harlan Laboratory. […]
# T1 sequence (Q05397 whole entry): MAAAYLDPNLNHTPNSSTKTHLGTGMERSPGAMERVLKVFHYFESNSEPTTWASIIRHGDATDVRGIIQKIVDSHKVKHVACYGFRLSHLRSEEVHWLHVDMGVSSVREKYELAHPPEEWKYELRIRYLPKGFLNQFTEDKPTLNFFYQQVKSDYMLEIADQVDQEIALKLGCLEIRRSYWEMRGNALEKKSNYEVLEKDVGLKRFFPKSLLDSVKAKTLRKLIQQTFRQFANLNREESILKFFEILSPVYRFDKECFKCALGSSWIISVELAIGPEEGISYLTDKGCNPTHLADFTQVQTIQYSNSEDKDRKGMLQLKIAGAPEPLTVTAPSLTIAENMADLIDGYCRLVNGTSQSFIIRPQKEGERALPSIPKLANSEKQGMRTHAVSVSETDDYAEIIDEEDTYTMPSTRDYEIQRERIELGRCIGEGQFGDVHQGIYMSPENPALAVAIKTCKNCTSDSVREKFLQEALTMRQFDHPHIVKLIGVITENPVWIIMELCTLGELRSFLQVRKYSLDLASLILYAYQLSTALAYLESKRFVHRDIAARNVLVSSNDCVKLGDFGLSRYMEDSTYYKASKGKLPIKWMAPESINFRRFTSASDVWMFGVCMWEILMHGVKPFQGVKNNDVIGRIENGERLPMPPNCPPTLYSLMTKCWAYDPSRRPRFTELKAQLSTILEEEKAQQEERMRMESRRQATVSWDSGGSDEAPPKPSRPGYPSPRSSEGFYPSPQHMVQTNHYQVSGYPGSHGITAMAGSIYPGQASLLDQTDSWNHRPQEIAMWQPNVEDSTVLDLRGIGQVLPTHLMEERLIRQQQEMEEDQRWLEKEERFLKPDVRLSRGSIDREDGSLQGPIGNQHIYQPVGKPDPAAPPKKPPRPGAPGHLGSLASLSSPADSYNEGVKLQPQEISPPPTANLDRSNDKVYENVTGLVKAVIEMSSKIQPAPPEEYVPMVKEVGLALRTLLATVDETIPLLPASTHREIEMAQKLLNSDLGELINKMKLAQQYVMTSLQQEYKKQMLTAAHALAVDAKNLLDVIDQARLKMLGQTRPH
# T2 sequence (P12931 whole entry): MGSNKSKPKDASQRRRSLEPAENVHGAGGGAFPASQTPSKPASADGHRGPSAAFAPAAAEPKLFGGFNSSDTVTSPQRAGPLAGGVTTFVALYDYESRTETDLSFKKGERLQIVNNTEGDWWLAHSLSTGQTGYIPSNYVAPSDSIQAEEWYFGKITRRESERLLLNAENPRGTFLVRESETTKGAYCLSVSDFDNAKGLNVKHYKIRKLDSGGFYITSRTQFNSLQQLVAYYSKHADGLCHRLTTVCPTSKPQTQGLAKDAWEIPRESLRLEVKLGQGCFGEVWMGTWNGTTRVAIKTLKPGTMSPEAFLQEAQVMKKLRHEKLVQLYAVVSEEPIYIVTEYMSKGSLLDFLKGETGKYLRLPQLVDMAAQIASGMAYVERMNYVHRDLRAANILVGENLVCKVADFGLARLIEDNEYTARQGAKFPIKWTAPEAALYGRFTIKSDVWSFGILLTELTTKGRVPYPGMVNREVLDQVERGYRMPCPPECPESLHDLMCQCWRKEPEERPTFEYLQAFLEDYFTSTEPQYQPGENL
smiles,measurement,setting,value
"Cl.Cl.Cl.Cl.Nc1cc(N)c(N)cc1N [Y15, 1,2,4,5-benzenetetraamine tetrahydrochloride]",dose from which FAK autophosphorylation activity was directly blocked,FAK,1
same,detachment,BT474 cells; 10 μM,8%
same,detachment,BT474 cells; 50 μM,38%
same,detachment,BT474 cells; 100 μM,58%
same,cell viability (trypan blue),[1],no decrease in cell viability
same,morphology and cell detachment,normal human fibroblasts,did not cause a significant change in morphology or increase in cell detachment
same,cell viability (trypan blue),[2],decreased cell viability indicative of necrosis
same,cell viability,[3],maximally decreased cell viability
same,inhibition of Y397 phosphorylation compared with TAE226,[4]; 100 μM,same or better inhibition as TAE226
same,dose from which Y397 phosphorylation of FAK was inhibited,[4],0.1 µM
same,total FAK level,[4]; higher doses,down regulated
same,kinase activity,c-Src,did not significantly decrease kinase activity
